Here are results for 1 molecule from patent US20170368089A1, “COMPOSITION FOR PREVENTING OR TREATING COLITIS” (UNIVERSITY-INDUSTRY COOPERATION GROUP OF KYUNG HEE …, priority 2012, published 2017).

Experiment [1] relates to IL-1 beta. Briefly: IL-1 beta expression in colon tissue (ELISA), TNBS colitis, first experiment. It is filed as in vivo, ICR male mice. Conditions: TNBS-treated mice, 10 mg/kg orally, 3 days. The protocol:
(§1) Among the experimental groups, one group was set as a normal group, and for the experimental animals in other groups, colitis was induced with 2,4,6-trinitrobenzenesulfonic acid (TNBS). In detail, after lightly anesthetizing the experimental animals with ether, 0.1 ml of the solution prepared by mixing […] of 2,4,6-Trinitrobenzene sulfonic acid (NBS) solution with 50% ethanol was injected into the colon through the anus using a syringe having 1 ml volume and oval point, respectively; and then, the syringe was vertically picked up, and then, maintained for 30 seconds to induce the inflammation. Meanwhile, 0.1 ml of normal saline solution was orally administered to the normal group. Since then, from the next day, the sample dissolved in normal saline solution was orally administered in the volume that was decided in advance one time a day for 3 days. At the next day after completing the sample administration, the experimental animals were suffocated to death with carbon dioxide, the colon from appendix to the region just before the anus was removed from the colon region.
250 μl of RIPA butter including protease inhibitor cocktail was added to 100 mg of the colon tissue of experimental animal, and then, the colon tissue was homogenized. Since then, the homogenized colon tissue was centrifuged under the conditions of 4° C. and 13000 rpm for 15 minutes to obtain supernatant. While the supernatant was stored at −80° C., the expression amounts of IL-1 beta, IL-6, and TNF-alpha were measured using a 96-well ELISA plate kits (Pierce Biotechology, Inc., Rockford, Ill., USA).

Experiment [2] concerns Myeloperoxidase (MPO). Briefly: MPO activity of colon tissue (mouse MPO ELISA kit), TNBS colitis, first experiment. It is filed as in vivo, ICR male mice. As to conditions: TNBS-treated mice, 10 mg/kg orally, 3 days. The protocol: as §1
200 μl of lysis buffer was added to 100 mg of colon tissue, and then, the colon tissue was homogenized. Since then, the homogenized colon tissue was centrifuged under the conditions of 4° C. and 13000 rpm for 15 minutes, and then, the supernatant thereof was obtained. In the supernatant, the MPO activity was measured using a mouse MPO assay ELISA kit (Hbt HK210, USA). 100 μl of the supernatant was added in a 96 well plate, and then, reacted at room temperature for 1 hour. After completing the reaction, the plate was overturned and emptied; was repeatedly washed three times with 200 μl of washing buffer solution; 100 μl of diluted tracer was added thereto; and then the reaction was performed at room temperature for 1 hour. After completing the reaction, the plate was overturned and emptied; and then each well in the plate was washed using 200 μl of washing buffer solution. After repeatedly performing the washing processes three times using 200 μl of washing buffer solution, 100 μl of diluted streptavidin-peroxidase conjugate was added thereto, and then, the reaction was performed at room temperature for 1 hour. After completing the reaction, the plate was overturned and emptied, and then, each well in the plate was washed with 200 μl of washing buffer solution. After the washing processes were repeatedly performed three times using 200 μl of washing buffer solution, 100 μl of TMB substrate solution was added thereto; the plate was wrapped in an aluminum foil to block out the light; and then, the reaction was performed at room temperature for 30 minutes. Since then, 100 μl of a stop solution was added to stop the reaction, and then, the absorbance was measured at 450 nm using an ELISA reader.
In general terms: ELISA stands for enzyme-linked immunosorbent assay.

Experiment [3] concerns IL-1 beta. Briefly: IL-1 beta expression in colon tissue (ELISA), TNBS acute colitis, third experiment. It counts as in vivo, male mice (C57BL/6). Conditions: Table 12; TNBS-treated mice, 10 mg/kg orally, 3 days. The procedure:
(§2) Meanwhile, 0.1 ml of normal saline solution was orally administered to the normal group. Since then, from the next day, the sample dissolved in normal saline solution was orally administered in the volume that was decided in advance one time a day for 3 days. At the next day after completing the sample administration, the experimental animals were suffocated to death with carbon dioxide, and the colon from appendix to the region just before the anus was removed from the colon region. At this time, as a medicine sample, the experiments using the butanol-soluble fraction of the Anemarrhena asphodeloides Bunge extract, Mangiferin, and a combined extract were separately performed at a distance of time, respectively, and the effects of the medicine samples on preventing or treating colitis were reasonably analyzed based on the group supplied with normal saline solution instead of a specific medicine in the model animals with acute colitis induced by TNBS for each of the experiments. […] While the supernatant was stored at −80° C., the expression amounts of IL-1 beta, IL-6, and TNF-alpha, which were proinflammatory cytokines, and the expression amount of IL-10, which was anti-inflammatory cytokine, were measured using a 96-well ELISA plate kits (Pierce Biotechology, Inc., Rockford, Ill., USA).

The test system of another experiment is IL-6. Briefly: IL-6 expression in colon tissue (ELISA), TNBS acute colitis, third experiment. It is filed as in vivo, male mice (C57BL/6). As to conditions: Table 12; TNBS-treated mice, 10 mg/kg orally, 3 days. The procedure:
as §2

Experiment [4] has as its system Myeloperoxidase (MPO). Briefly: MPO activity of colon tissue, TNBS acute colitis, third experiment. It is filed as in vivo, male mice (C57BL/6). As to conditions: Table 12; TNBS-treated mice, 10 mg/kg orally, 3 days. The procedure:
as §2, with “Since then, the homogenized colon tissue was centrifuged under the conditions of 4° C. and 13000 rpm for 15 minutes, and then,” for “While”, “supernatant thereof” for “supernatant”, “obtained. […] Since then, 100 μl of a stop solution was added to stop the reaction, and then, the absorbance was measured” for “stored”, “450 nm” for “−80° C., the expression amounts of IL-1 beta, IL-6, and TNF-alpha, which were proinflammatory cytokines, and the expression amount of IL-10, which was anti-inflammatory cytokine, were measured”, “an” for “a 96-well”, “reader.” for “plate kits (Pierce Biotechology, Inc., Rockford, Ill., USA).”

For the molecule `Nc1ccc(O)c(C(=O)O)c1` [mesalazine, Mesalazine], the IL-1 beta conc. in the experiment on IL-1 beta [1] (Table 4 (group 1)) was 19.8 ± 14.4 pg/mg; in the experiment on IL-1 beta [1] (Table 5 (group 2)), 31.1 ± 2.9 pg/mg. Also, the MPO activity is recorded as 1.8 ± 0.2 μUnit/mg with Myeloperoxidase (MPO) [2] (Table 2 (group 1)) and 0.2 ± 0.1 μUnit/mg in the experiment on Myeloperoxidase (MPO) [2] (Table 3 (group 2)). For the same molecule, the “IL-1β (Percentage to group supplied with normal saline solution after treating TNBS)” value in the experiment with IL-1 beta [3] is 30.3%. Moreover, in the experiment on IL-6, the “IL-6 (Percentage to group supplied with normal saline solution after treating TNBS)” value is on record as 26.6%. In the experiment with Myeloperoxidase (MPO) [4], the “MPO activity (Percentage to group supplied with normal saline solution after treating TNBS)” value is recorded as 47.8%.
